In patent US10940201B2, “Nucleic acid derivative having immunostimulatory activity” (Shionogi & Co., Ltd., priority 2015, dated 2021):

Legend:
antigen-specific CTL = experiment: Antigen-specific CTL inducibility in the absence of a tumor antigen peptide; type: in vivo, mouse
Protocol: On 7 days after second vaccination, the blood was collected, red blood cells was removed by BD Pharm Lyse (BD pharmingen), and the white blood cells were suspended in FACS buffer (1% fetal bovine serum, 2 mM PBS with EDTA). Anti-mouse CD16/32 monoclonal antibody (BioXcell) was added thereto, and Fc receptor blocking was carried out at 4° C. for 30 minutes. […] Then, staining was carried out with DAPI (Invitrogen) and the cells were washed twice with FACS buffer. It was resuspended in FACS buffer and analyzed by FACS verse Flow Cytometer (BD bioscience) and FAC Suite software (BD bioscience). For analysis, after DAPI negative fraction was gated, white blood cells fraction were provided using forward and side-way scattering as indicators. In the white blood cells fraction, both positive cells of Alexa 647-CD8 and PE-H-2Kb Tetramer were defined as CTLs. CTL ratio in white blood cells was used for evaluation.

B16F10 cells = experiment: Anti-tumor effect in the absence of a tumor antigen peptide; type: in vivo, mouse; conditions: Table 69, compared to ODN2006 (SEQ-49)
Protocol: After immunization by TRP2 peptide vaccine, B16F10 cells (ATTC) which is mouse melanoma expressing TRP2 protein was subcutaneously transplanted to evaluate anti-tumor effect. In a similar method to Example 3 A), on the next day that tetramer-positive ratio in peripheral blood of mouse vaccinated twice every 7 days was observed, B16F10 cells (1×10^5 cells/mouse) were subcutaneously transplanted in the right shoulder. The major and minor axes of the engrafted tumor were measured every 2 to 3 days, and the tumor volume was calculated by the formula: (major axis×minor axis^2)/2 Calculation method for indicators of anti-tumor effect For the adjuvant comprising ODN1826 100·(average tumor volume of adjuvant group)/(average tumor volume of ODN1826 group) For the adjuvant comprising ODN2006 100·(average tumor volume of adjuvant group)/(average tumor volume of ODN2006 group)
Antigen-specific CTL inducibility and anti-tumor effect of ODN2006 (SEQ-49) and SEQ-121 in the absence of a tumor antigen peptide were evaluated. In similar methods of A) and B) of Example 3, the effect of vaccine without a tumor antigen peptide was verified. Both of the antigen-specific CTL values of SEQ-49 and SEQ-121 were undetectable.

[1] = Subcutaneous irritation test in a single dose; type: in vivo, rats; conditions: for Gross: Subcutaneous: White nudules / Histopathological, Subcutaneous: Cyst-like structure accompanied with formulation of fibrous capsule / Gross: Epidermis: Crust / Histopathological, Subcutaneous: Cyst-like structure: number of the observed animals; for Histopathological, Muscle layer: Monocyte infiltration / Histopathological, Subcutaneous: Edema / Histopathological, Subcutaneous: Granulomatous infiltration / Histopathological, Subcutaneous: Neutrophilic infiltration / Histopathological, Subcutaneous: Granulomatous inflammation / Histopathological, Subcutaneous: Monocyte infiltration / Histopathological, Subcutaneous: Necrosis: total score of grades; for Administration site, Gross: Subcutaneous: Red spots, Erythema / Administration site, Gross: Subcutaneous: White accumulation / Administration site, Histopathological: Subcutaneous: Cyst-like structure: number of the observed animals (of 3); for Administration site, Gross: Subcutaneous: Red spots, Erythema / Administration site, Gross: Subcutaneous: White accumulation / Administration site, Histopathological: Subcutaneous: Cyst-like structure / Number of deaths / Number of imminent dissections / Administration site, Histopathological: Muscle layer: Edema / Administration site, Histopathological: Muscle layer: Neutrophilic infiltration / Administration site, Histopathological: Subcutaneous: Bleeding / Administration site, Histopathological: Subcutaneous: Edema / Administration site, Histopathological: Subcutaneous: Neutrophilic infiltration: one day after administration; for Number of deaths / Number of imminent dissections / Administration site, Histopathological: Muscle layer: Edema / Administration site, Histopathological: Muscle layer: Neutrophilic infiltration / Administration site, Histopathological: Subcutaneous: Bleeding / Administration site, Histopathological: Subcutaneous: Edema / Administration site, Histopathological: Subcutaneous: Neutrophilic infiltration: 3 animals; for Administration site, Histopathological: Muscle layer: Edema / Administration site, Histopathological: Muscle layer: Neutrophilic infiltration / Administration site, Histopathological: Subcutaneous: Bleeding / Administration site, Histopathological: Subcutaneous: Edema / Administration site, Histopathological: Subcutaneous: Neutrophilic infiltration: total score (Minimal 1, Mild 2, Moderate 3)
Protocol: Subcutaneous irritation of a compound of the present invention was evaluated by gross examination and histopathological examination about the skin at necropsy one day, one and four week(s) after subcutaneous administration in a single dose.
The compound of the present invention was subcutaneously administered to the center of back between the shoulder blades of rats. At necropsy one day, one or four week(s) after administration (isoflurane anesthesia, euthanasia by bleeding), skin at the administration site was collected, grossly observed and fixed in 10% neutral buffered formalin solution. The fixed skin was cut out, embedded and put in a thin slice by the usual methods, and Hematoxylin-eosin (HE) stained sections were made. The pathological observers were observed the HE stained sections by an optical microscope, and recorded the histopathological findings. The changes in pathological findings were evaluated in four grades of Minimal; ±, Mild; +, Moderate; 2+ and Marked; 3+. When any grade was not appropriate for the finding, it was recorded as Positive.
SEQ-2, SEQ-49 or an adjuvant of the present invention was dissolved in phosphate buffered saline and administered at 4.71, 15.7 or 47.1 nmol/1 mL/site, respectively.

recombinant PCRV protein = experiment: Inducibility of antibody production in immunization by PCRV antigen vaccine (antibody titer); type: in vivo; conditions: A/J mice, recombinant PCRV protein with adjuvant, intradermal; antiserum Day 33; FIG. 15
Protocol: Perv nucleotide sequence (SEQ ID NO: 48) derived from Pseudomonas aeruginosa Strain PAO1 was cloned at NdeI-XhoI site in pET21a vector, and Escherichia coli strain BL21 (DE3) was transformed with the prepared plasmid. Strain perV-BL21 (DE3) was cultured in 500 mL of LB/Ampicillin liquid medium at 37° C., and 200 μL of 0.1 M IPTG was added when OD600 became 0.5 to induce expression of recombinant PCRV protein. After culturing at 16° C. for 18 hours, bacteria was separated by a centrifuge, and 15 ml of Buffer A (50 mM Tris-HCl (pH8.0), 0.2M NaCl) comprising 0.5% lysozyme (SIGMA Corporation) was added. After putting at 4° C. for 30 minutes, ultrasonic treatment was carried out. After centrifugation at 12,000 rpm for 10 minutes, soluble fraction was obtained. 1 mL of Ni-NTA agarose gel (QIAGEN) was added to Polyprep column (BIO-RAD Laboratories, Inc) and equilibrated with 10 mL of Buffer A. Soluble fraction was added to the column and passed. […] The resulting recombinant PCRV protein was measured the concentration with BCA assay kit (PIERCE) and kept at −80° C. […]
Antibody titer was measured as blow. […] 20 μL/well of 0.5 N sulfuric acid (Nacalai) was added, and absorbance at 450 nm was measured with a plate reader. The dilution ratio when absorbance at 450 nm is 1.0 was calculated and put as an antibody titer.

[2] = four weeks after administration, 4.71 nmol/site
[3] = four weeks after administration, 15.7 nmol/site
[4] = four weeks after administration, 47.1 nmol/site
[5] = one week after administration, 4.71 nmol/site
[6] = one week after administration, 15.7 nmol/site
[7] = one week after administration, 47.1 nmol/site

ODN2006 [SEQ-49]
Ratio of average value of antigen-specific CTL (antigen-specific CTL; Table 69, in the absence of a tumor antigen peptide): Undetectable
antigen-specific CTL values (antigen-specific CTL; absence of a tumor antigen peptide): undetectable
Tumor inhibition rate (Day 12 after transplantation) (B16F10 cells): 0.00%
Number of deaths/imminent dissections [1, 2]: 0/0
Gross: Subcutaneous: White nudules [1, 2]: 0
Histopathological, Subcutaneous: Cyst-like structure accompanied with formulation of fibrous capsule [1, 2]: 0
Histopathological, Muscle layer: Monocyte infiltration [1, 2]: 0
Histopathological, Subcutaneous: Edema [1, 2]: 0
Histopathological, Subcutaneous: Granulomatous infiltration [1, 2]: 0
Histopathological, Subcutaneous: Neutrophilic infiltration [1, 2]: 0
Number of deaths/imminent dissections [1, 3]: 0/0
Gross: Subcutaneous: White nudules [1, 3]: 0
Histopathological, Subcutaneous: Cyst-like structure accompanied with formulation of fibrous capsule [1, 3]: 0
Histopathological, Muscle layer: Monocyte infiltration [1, 3]: 0
Histopathological, Subcutaneous: Edema [1, 3]: 0
Histopathological, Subcutaneous: Granulomatous infiltration [1, 3]: 0
Histopathological, Subcutaneous: Neutrophilic infiltration [1, 3]: 0
Number of deaths/imminent dissections [1, 4]: 0/0
Gross: Subcutaneous: White nudules [1, 4]: 0
Histopathological, Subcutaneous: Cyst-like structure accompanied with formulation of fibrous capsule [1, 4]: 0
Histopathological, Muscle layer: Monocyte infiltration [1, 4]: 0
Histopathological, Subcutaneous: Edema [1, 4]: 0
Histopathological, Subcutaneous: Granulomatous infiltration [1, 4]: 0
Histopathological, Subcutaneous: Neutrophilic infiltration [1, 4]: 0
Administration site, Gross: Subcutaneous: Red spots, Erythema ([1]; 4.71 nmol/site): 0
Administration site, Gross: Subcutaneous: White accumulation ([1]; 4.71 nmol/site): 0
Administration site, Histopathological: Subcutaneous: Cyst-like structure ([1]; 4.71 nmol/site): 0
Administration site, Gross: Subcutaneous: Red spots, Erythema ([1]; 15.7 nmol/site): 0
Administration site, Gross: Subcutaneous: White accumulation ([1]; 15.7 nmol/site): 0
Administration site, Histopathological: Subcutaneous: Cyst-like structure ([1]; 15.7 nmol/site): 0
Administration site, Gross: Subcutaneous: Red spots, Erythema ([1]; 47.1 nmol/site): 1
Administration site, Gross: Subcutaneous: White accumulation ([1]; 47.1 nmol/site): 0
Administration site, Histopathological: Subcutaneous: Cyst-like structure ([1]; 47.1 nmol/site): 0
Number of deaths ([1]; 4.71 nmol/site): 0/0
Number of imminent dissections ([1]; 4.71 nmol/site): 0/0
Number of deaths ([1]; 15.7 nmol/site): 0/0
Number of imminent dissections ([1]; 15.7 nmol/site): 0/0
Number of deaths ([1]; 47.1 nmol/site): 0/0
Number of imminent dissections ([1]; 47.1 nmol/site): 0/0
Number of deaths/imminent dissections [1, 5]: 0/0
Gross: Epidermis: Crust [1, 5]: 1
Gross: Subcutaneous: White nudules [1, 5]: 0
Histopathological, Subcutaneous: Cyst-like structure [1, 5]: 0
Histopathological, Subcutaneous: Edema [1, 5]: 4
Histopathological, Subcutaneous: Granulomatous inflammation [1, 5]: 0
Histopathological, Subcutaneous: Monocyte infiltration [1, 5]: 3
Histopathological, Subcutaneous: Necrosis [1, 5]: 0
Histopathological, Subcutaneous: Neutrophilic infiltration [1, 5]: 0
Number of deaths/imminent dissections [1, 6]: 0/0
Gross: Epidermis: Crust [1, 6]: 1
Gross: Subcutaneous: White nudules [1, 6]: 0
Histopathological, Subcutaneous: Cyst-like structure [1, 6]: 0
Histopathological, Subcutaneous: Edema [1, 6]: 6
Histopathological, Subcutaneous: Granulomatous inflammation [1, 6]: 0
Histopathological, Subcutaneous: Monocyte infiltration [1, 6]: 6
Histopathological, Subcutaneous: Necrosis [1, 6]: 0
Histopathological, Subcutaneous: Neutrophilic infiltration [1, 6]: 0
Number of deaths/imminent dissections [1, 7]: 0/0
Gross: Epidermis: Crust [1, 7]: 0
Gross: Subcutaneous: White nudules [1, 7]: 0
Histopathological, Subcutaneous: Cyst-like structure [1, 7]: 0
Histopathological, Subcutaneous: Edema [1, 7]: 5
Histopathological, Subcutaneous: Granulomatous inflammation [1, 7]: 0
Histopathological, Subcutaneous: Monocyte infiltration [1, 7]: 8
Histopathological, Subcutaneous: Necrosis [1, 7]: 0
Histopathological, Subcutaneous: Neutrophilic infiltration [1, 7]: 0
subcutaneous irritation findings four weeks after administration ([1]; rats, single subcutaneous dose, four weeks): inflammation was almost recovered
subcutaneous irritation findings one day after administration ([1]; rats, single subcutaneous dose, one day): acute inflammation, mainly neutrophil infiltration, was observed under the skin
subcutaneous irritation findings one week after administration ([1]; rats, single subcutaneous dose, one week): inflammation, mainly lymphocyte and macrophage, was observed from subcutaneous to dermis tissue
Administration site, Histopathological: Muscle layer: Edema ([1]; 4.71 nmol/site): 2
Administration site, Histopathological: Muscle layer: Neutrophilic infiltration ([1]; 4.71 nmol/site): 4
Administration site, Histopathological: Subcutaneous: Bleeding ([1]; 4.71 nmol/site): 2
Administration site, Histopathological: Subcutaneous: Edema ([1]; 4.71 nmol/site): 4
Administration site, Histopathological: Subcutaneous: Neutrophilic infiltration ([1]; 4.71 nmol/site): 6
Administration site, Histopathological: Muscle layer: Edema ([1]; 15.7 nmol/site): 1
Administration site, Histopathological: Muscle layer: Neutrophilic infiltration ([1]; 15.7 nmol/site): 6
Administration site, Histopathological: Subcutaneous: Bleeding ([1]; 15.7 nmol/site): 1
Administration site, Histopathological: Subcutaneous: Edema ([1]; 15.7 nmol/site): 5
Administration site, Histopathological: Subcutaneous: Neutrophilic infiltration ([1]; 15.7 nmol/site): 6
Administration site, Histopathological: Muscle layer: Edema ([1]; 47.1 nmol/site): 0
Administration site, Histopathological: Muscle layer: Neutrophilic infiltration ([1]; 47.1 nmol/site): 5
Administration site, Histopathological: Subcutaneous: Bleeding ([1]; 47.1 nmol/site): 2
Administration site, Histopathological: Subcutaneous: Edema ([1]; 47.1 nmol/site): 5
Administration site, Histopathological: Subcutaneous: Neutrophilic infiltration ([1]; 47.1 nmol/site): 6
antibody titer (dilution ratio when absorbance at 450 nm is 1.0) (recombinant PCRV protein): 5.3×10^5
